# Test results reported in patent US8710184B2, “Motilin-like peptide compound having transmucosal absorbability imparted thereto” (Daiichi Sankyo Company, Limited, priority 2009, dated 2014).
# Where “and” joins values, the source holds several entries; their conditions need not be identical. Equal entries are not always repeated. Starred links: 1 amine or outer side, 2 acyl side, 3 side chain; linkers in the order of their positions; H or OH if unused. Non-standard residues stand in square brackets, D forms with d. Residues, ends and D or L forms follow the SMILES beside them. No end group written: not given here. β3hPhg = O=C(C[C@@H](N[*:1])c1ccccc1)[*:2]; Sar = CNCC(=O)O
# What was measured:
# [1] = HPLC fractionation and RIA of rat plasma after pulmonary administration (unaltered form vs metabolites); format: in vivo
# Method: This example was conducted with a view to measuring by RIA the changes that occurred in rats in terms of the plasma concentrations of pulmonarily administered native motilin and motilin derivative compounds. When the RIA technique is applied, all substances that react with the anti-motilin antibody are detected, so aside from unaltered forms, metabolites that react with the antibody are also likely to be detected.
# To be more specific, a polyethylene tube (PE-240; product of Clay Adams) was inserted into the trachea of 7-wk old male SD rats (purchased from CHARLES RIVER LABORATORIES JAPAN, INC.); native motilin or compound 2 (MT114) was dissolved in an aqueous solution of 0.1 N acetic acid to prepare a solution at a concentration of 1 mg/mL and 25 μL of the solution was administered into the polyethylene tube through the trachea by means of an intratracheal liquid spraying device (MicroSprayer; product of Penn Century). Five minutes after the administration, blood was sampled through the abdominal aorta and treated as in Comparative Example 1 to separate plasma. […] For each sample, an eluate was sampled at one-minute intervals from just after the sample injection to a 40-minute after sample injection and the immunological activity in each fraction was measured by RIA.
# in vivo = details: male, cynomolgus monkey, iv, 10 ug/kg
# Method: In this example, native motilin and a motilin derivative compound were administered intravenously to monkeys and their plasma concentrations were measured.
# As test animals, 8- to 9-year old male cynomolgus monkeys (N=1-2 per group) were subjected to the following experiment. Native motilin and compound 2 were each dissolved in a 5% mannitol solution to prepare solutions at a concentration of 100 μg/mL; the solutions were administered to the animals at a dose of 0.1 mL/kg through the right cephalic vein by means of a syringe and a needle (both being products of TERUMO). Before administration and 5, 10, 15, 20, 30 and 60 minutes after administration, blood was sampled through the left cephalic vein.
# To the collected sample, a 10% EDTA.2Na.2H2O solution was immediately added at a volume ratio of 1:100 and the plasma was separated by centrifugation. The plasma was immediately mixed with a 5,000 IU/mL aprotinin solution at a volume ratio of 1:10 and stored at −80° C. until use in measurement.
# Measurement of the plasma concentrations of native motilin and the motilin derivative compound was conducted by the radioimmunoassay (RIA) technique using an anti-motilin antibody. Stated more specifically, after adding an anti-motilin antibody to the plasma sample, [^125I-Tyr7] motilin was added for a competitive reaction to take place. By subsequent addition of a secondary antibody, the motilin binding to the anti-motilin antibody was precipitated and after separating the supernatant, the radioactivity in the precipitating faction was measured with a γ-counter (product of PerkinElmer).
# From the obtained profiles for the plasma concentrations of native motilin and the motilin derivative compound, the plasma concentration at time zero (C0) and the area under curve for plasma concentrations (AUC) were calculated as pharmacokinetic parameters; C0 was determined by extrapolation and AUC by the trapezoidal method.
# [2] = Pharmacokinetic experiment on intranasally administered native motilin and a motilin derivative compound in monkeys (RIA); format: in vivo, cynomolgus monkey; details: intranasal administration; for BA: relative to intravenous AUC of each compound; for AUC / Cmax: male, cynomolgus monkey, plasma, inhaled or intranasal, mean for N = 1-2
# Method: This example was conducted with a view to measuring by RIA the changes that occurred in monkeys in terms of the plasma concentrations of transnasally administered native motilin and a motilin derivative compound.
# In the experiment, 10- to 11-year old male cynomolgus monkeys were used. Native motilin or compound 2 and microcrystalline cellulose were mixed at a ratio of 1:40 to prepare intranasal preparations, 20-mg portions of which were filled into gelatin capsules. Each capsule was administered into the right nasal cavity of each animal by means of an intranasal administration device (product of Hitachi Automotive Systems, Ltd.). Before administration and 5, 10, 15, 20, 30, 60, 120 and 180 minutes after administration, blood was sampled through the cephalic vein. The collected blood sample was treated as in Comparative Example 2 to separate plasma and the concentrations of native motilin and the motilin derivative compound in plasma were measured by RIA. In the measurement, the respective derivatives were used as standard substances to construct calibration curves for determining the plasma levels.
# Using these values, bioavailability (BA (%)) was calculated by the following equation: BA(%)=[(AUC/Dose)/(AUC(iv)/Dose(iv))]×100 • AUC: AUC (ng·min/mL) after intranasal administration • Dose: dose (μg/kg) in intranasal administration • AUC (iv): AUC (ng·min/mL) after intravenous administration of each compound • Dose (iv): dose (μg/kg) in intravenous administration of each compound.
# [3] = Pharmacokinetic experiment on pulmonarily administered native motilin and motilin derivative compounds in rats (RIA); format: in vivo, rat; details: for Cmax / AUC / BA: 25 μg/rat; for AUC: trapezoidal method; for BA: relative to AUC of intravenous native motilin
# Method: As test animals, 7- to 10-wk old male SD rats (purchased from CHARLES RIVER LABORATORIES JAPAN, INC.) that consisted of 3 rats per a group were subjected to the following experiment. Native motilin or motilin derivative compounds were dissolved in an aqueous solution of 0.1 N acetic acid to prepare a solution at a concentration of 1 mg/mL and 25 μL of the solution was administered into the polyethylene tube through the trachea by means of an intratracheal liquid spraying device (MicroSprayer; product of Penn Century). […] In the measurement, the respective derivatives were used as standard substances to construct calibration curves for determining the plasma levels.
# Using these values, bioavailability (BA (%)) was calculated by the following equation: BA(%)=[(AUC/Dose)/(AUC(motilin—iv)/Dose(motilin—iv))]×100 • AUC: AUC (ng·min/mL) after pulmonary administration • Dose: dose (μg/kg) in pulmonary administration • AUC (motilin_iv): AUC (ng·min/mL) after intravenous administration of native motilin • Dose (motilin_iv): dose (μg/kg) in intravenous administration of native motilin.
# [4] = Non-Patent Document 18; cited from earlier work
# [5] = system: conscious dog's gastrointestinal tract; assay: Fasting IMC inducing activity in conscious dogs (force transducers); format: in vivo; details: for IMC Inducing activity: fasting period, intravenous, 0.1 μg/kg
# Description: More specifically, dogs under anesthesia were subjected to a surgical operation in which force transducers were sutured to the serous membranes of the gastric antrum, duodenum, jejunum and ileum along the ring-shaped muscle and, thereafter, the strain from each transducer was sent to a recorder via an amplifier.
# [6] = Motilin degradation experiment using a lung homogenate supernatant; format: in vitro ADME
# Description: To solve this problem, the present inventors first assumed that motilin might be degraded after noninvasive transmucosal administration and performed a motilin degradation experiment using a lung homogenate supernatant.
# [7] = Pharmacokinetic experiment on intravenously administered native motilin in rats (RIA); format: in vivo; details: male, SD, rat, plasma, 100 ug/kg, intravenous, 100 μg/kg
# Method: Native motilin was administered intravenously to rats and its plasma levels were measured.
# As test animals, 7-wk old male SD rats (purchased from CHARLES RIVER LABORATORIES JAPAN, INC.) that consisted of 3 rats per a group were subjected to the following experiment. Native motilin was dissolved in a 5% mannitol solution to prepare a solution at a concentration of 100 μg/mL and this solution was administered to each rat at a dose of 1 mL/kg through the tail vein by means of a syringe and a 26G needle (both being products of TERUMO).
# [8] = male, SD, plasma, inhaled or intranasal, 25 ug/animal, pulmonary administration
# [9] = male, SD, plasma, other: pulmonary administration (intratracheal liquid spray)
# [10] = in vivo, pulmonary administration
compound,measurement,setting,value
FVPIFTYGELQRLQEKERNKPQ [Compound 2],immunological activity peaks in HPLC fractions of plasma,"[1]; rats, pulmonary administration, plasma 5 minutes after administration",detected only at the elution point corresponding to the administered compound (in unaltered form)
same,AUC,in vivo,15.4 ng·h/mL
same,C0,in vivo,273 ng/mL
same,profile of plasma concentration compared with native motilin,[2]; FIG. 5,a high peak level
same,BA,[2],5.1%
same,AUC,[2],6.02 ng·h/mL
same,Cmax,[2],23.5 ng/mL
same,Cmax,[3]; [8],26.6 ± 11.3 ng/mL
same,AUC,[3]; [8],5.84 ng·h/mL
same,BA,[3]; pulmonary administration,10.4% and 10.4 ± 4.3%
same,profile of plasma concentration compared with native motilin,"[3]; pulmonary administration, FIG. 3",high peak levels
atilmotin,half-life in plasma,[4],about 10 minutes
"CC[C@H](C)[C@H](NC(=O)[C@@H]1CCCN1C(=O)[C@@H](NC(=O)[C@@H](N)Cc1ccccc1)C(C)C)C(=O)N[C@@H](Cc1ccccc1)C(=O)N[C@H](C(=O)N[C@@H](Cc1ccc(O)cc1)C(=O)NCC(=O)N[C@@H](CCC(=O)O)C(=O)N[C@@H](CC(C)C)C(=O)N[C@@H](CCC(N)=O)C(=O)N[C@@H](CCCNC(=N)N)C(=O)N[C@@H](CCSC)C(=O)N[C@@H](CCC(N)=O)C(=O)N[C@@H](CCC(=O)O)C(=O)N[C@@H](CCCCN)C(=O)N[C@@H](CCC(=O)O)C(=O)N[C@@H](CCCNC(=N)N)C(=O)N[C@@H](CC(N)=O)C(=O)N[C@@H](CCCCN)C(=O)NCC(=O)N[C@@H](CCC(N)=O)C(=O)O)[C@@H](C)O [Native motilin, reference compound]",immunological activity peaks in HPLC fractions of plasma,"[1]; rat, in vivo",detected only at the elution point corresponding to the administered compound (in unaltered form)
same,AUC,in vivo,13.1 ng·h/mL
same,C0,in vivo,233 ng/mL
same,IMC Inducing activity,[5],Positive
same,duration of contraction of the duodenum,"[5]; intravenous 0.1 μg/kg, FIG. 1",about 10 minutes
same,duration of contraction of the gastric antrum,"[5]; intravenous 0.1 μg/kg, FIG. 1",about 10 minutes
same,degradation in lung homogenate supernatant,[6],found to be degraded
same,BA,[2],3.6%
same,AUC,[2]; 0.49 mg/animal,4.02 ng·h/mL
same,Cmax,[2]; 0.49 mg/animal,13.6 ng/mL
same,Cmax,[3]; [9],7.84 ± 0.98 ng/mL
same,AUC,[3]; [9],1.58 ng·h/mL
same,BA,[3]; pulmonary administration,3.3 ± 0.1%
same,BA,"[3]; pulmonary administration, listed as native motilin",3.3%
same,C0,"[7]; by extrapolation, read-out: plasma concentration at time zero (C0)",1800 ng/mL
same,AUC,"[7]; trapezoidal method, read-out: area under curve for plasma concentrations (AUC) (converted)",60 ng·h/mL
"CC[C@H](C)[C@H](NC(=O)CN(C)C(=O)[C@@H](NC(=O)C[C@@H](N)c1ccccc1)C(C)C)C(=O)N[C@@H](Cc1ccccc1)C(=O)N[C@H](C(=O)N[C@@H](Cc1ccc(O)cc1)C(=O)NCC(=O)N[C@@H](CCC(=O)O)C(=O)N[C@@H](CC(C)C)C(=O)N[C@@H](CCC(N)=O)C(=O)N[C@@H](CCCNC(=N)N)C(=O)N[C@@H](CCSC)C(=O)N[C@@H](CCC(N)=O)C(=O)N[C@@H](CCC(=O)O)C(=O)N[C@@H](CCCCN)C(=O)N[C@@H](CCC(=O)O)C(=O)N[C@@H](CCCNC(=N)N)C(=O)N1CCC[C@H]1C(=O)N[C@@H](CCCCN)C(=O)N1CCC[C@H]1C(=O)N[C@@H](CCC(N)=O)C(=O)O)[C@@H](C)O [Compound 10, Phg(C#CH2) Val Sar Ile Phe Thr Tyr Gly Glu Leu Gln Arg Met Gln Glu Lys Glu Arg Pro Lys Pro Gln] (β3hPhg-V[Sar]IFTYGELQRMQEKERPKPQ-OH; N-terminus and C-terminus assumed)",IMC Inducing activity,[5],Positive
same,Cmax,[3]; [10],6.1 ± 1.5 ng/mL
same,AUC,[3]; [10],3.16 ng·h/mL
same,BA,[3]; pulmonary administration,5.9 ± 0.8%
CC[C@H](C)[C@H](NC(=O)[C@@H]1CCCN1C(=O)[C@@H](NC(=O)[C@@H](N)Cc1ccccc1)C(C)C)C(=O)N[C@@H](Cc1ccccc1)C(=O)N[C@H](C(=O)N[C@@H](Cc1ccc(O)cc1)C(=O)NCC(=O)N[C@@H](CCC(=O)O)C(=O)N[C@@H](CC(C)C)C(=O)N[C@@H](CCC(N)=O)C(=O)N[C@@H](CCCNC(=N)N)C(=O)N[C@@H](CCSC)C(=O)N[C@@H](CCC(N)=O)C(=O)N[C@@H](CCC(=O)O)C(=O)N[C@@H](CCCCN)C(=O)N[C@@H](CCC(=O)O)C(=O)N[C@@H](CCCNC(=N)N)C(=O)N[C@@H](CC(N)=O)C(=O)N[C@@H](CCCCN)C(=O)N1CCC[C@H]1C(=O)N[C@@H](CCC(N)=O)C(=O)O)[C@@H](C)O [Compound 1],Cmax,[3]; [8],9.09 ± 0.53 ng/mL
same,AUC,[3]; [8],1.99 ng·h/mL
same,BA,[3]; pulmonary administration,5.3 ± 0.6%
same,BA,"[3]; pulmonary administration, listed as compound 1",5.3%
